Data set [1] is described as follows: Phase I (Group 2) study of HME or SDD formulations in healthy human subjects, fed (standard meal). Format: in vivo. The note with it: 225 mg HME or SDD oral; for half-life: human, plasma, po, 225 mg. The procedure:
Bioavailability of the ion channel modulator compound 1 was studied in healthy human subjects using SDD and HME formulations, with subjects in a fed state. The effect the SDD or HME formulation on bioavailability following a single oral dose under fed conditions was thereby evaluated and compared. Safety and tolerability of compound 1 was also evaluated.
This study utilized a single-center, single-dose open-label, 2-group, 2-period randomized crossover design to determine bioavailability following treatment with the SDD or HME formulation under fed conditions. A total of 16 subjects were selected by the criteria described in Example 10.
Subjects were treated with an oral dose of 225 mg HME (as described in Example 8, Table 14) or 225 mg SDD (as described in Example 7) with approximately 8 fluid ounces of water in the fed (standard meal) state. Subjects were randomized between HME and SDD formulations in equal numbers during period 1 of the trial, and, following a washout period, assigned to the opposite formulation during period 2. The fed condition is defined as the state of a subject following an overnight fast of at least 10 hours with a test meal provided 30 minutes prior to administration of the study drug. The subject must completely consume their respective meal before being dosed. Meals were standardized and standard meals were served according to a pre-determined schedule throughout the inpatient portion of the study. A standardized meal derived approximately 35% of total caloric content of the meal from fat, approximately 15-20% from protein, and approximately 45-50% from carbohydrates, with a total caloric content of approximately 400-450 calories. An example test meal would have included ⅝ ounces Cheerios®, 1 egg, 1 strip of bacon, 1 slice of toast with margarine, 6 ounces of low fat milk, and 4 ounces of orange juice. The time of food intake before and after study drug administration was documented. Water was allowed as desired except for one hour before and after drug administration. Outside of these restrictions, subjects in both fed and fasted conditions were provided fluid intake according to the subject's individual needs, with documentation. HME and SDD groups were dosed and evaluated simultaneously.
Treatments of 225 mg HME or SDD were administered on day 1 of period 1 of the trial and subjects were admitted to the clinical research unit (CRU) for four days of inpatient evaluation. Subjects were discharged from the CRU upon completion of assessments on day 4, and reported to the CRU for additional pharmacokinetic blood sampling and safety assessment on days 5 and 6, completing period 1. There was a 7-day washout between the first and second period drug administrations. In the second period, subjects were treated with an oral dose of 225 mg HME or 225 mg SDD in the fed (standard meal) state. The treatment was administered on day 1 of period 2 of the trial and subjects were admitted to the clinical research unit (CRU). Subjects were discharged from the CRU upon completion of assessments on day 4, and reported to the CRU for additional and followup pharmacokinetic blood sampling and safety assessment on days 5, 6, 8, 15, 22, 29, and 36 of period 2.
Pharmacokinetic assessments conducted during each treatment period were performed by the collection of venous blood samples via indwelling catheter or direct venipuncture. The plasma concentrations of the drug was determined for each sample. Concentration of the drug was determined using a validated liquid chromatography coupled with tandem mass (LC/MS/MS) assay, with a lower limit of quantitation (LLOQ) of 0.1 ng/mL. Descriptive statistics were calculated for these parameters and tabulated by formulation and period. Safety of the trial subjects was assessed by the following endpoints: adverse events, vital signs, ECG parameters, laboratory parameters, medical history, and physical examination. […]

Data set [2] can be described thus: log P of compound 1 (previously determined). Format: physicochemical. From the text: Compound 1 has the following previously determined characteristics: […]
The nature of data set [3]: Dissolution of solid dispersions, gastric-to-FaSSIF media transition at 13 minutes. Particulars: unformulated; pH 1.0-to-6.5. Format: physicochemical. The procedure: FIGS. 1A-1H are graphs showing the dissolution rate in gastric media for solid dispersion formulations having 20% (w/w) loading of compound 1 and a gastric-to-FaSSIF (pH 1.0-to-6.5) media transition at 13 minutes. […]
Various formulations were tested to reduce precipitation. As shown in FIGS. 1A-1H, solubility was measured for the following formulations: carboxymethylethyl cellulose (CMEC, FIG. 1A), cellulose acetate phthalate (CAP, FIG. 1B), hydroxypropylmethyl cellulose acetate succinate M grade (HPMCAS-M, FIG. 1C), polyvinyl acetate phthalate (PVAP, FIG. 1D), methacrylic acid-methyl methacrylate copolymer (Eudragit® L 100, FIG. 1E), polyethylene glycol-polyvinylcaprolactam-polyvinylacetate copolymer (Soluplus®, FIG. 1F), hydroxypropylmethyl cellulose phthalate (HPMCP-H55, FIG. 1G), and polyvinylpyrrolidone vinylacetate copolymer (PVP-VA, FIG. 1H). […]
Further tests were conducted with different % loading of compound 1. Dissolution rates were measured for formulations have 35% (w/w) loading (FIGS. 2A-2C) and 50% (w/w) loading (FIGS. 3A-3D). CAP, HPMCAS-M, Eudragit® L 100, and PVAP were further analyzed for these tests. […]

These results are taken from patent US8409560B2, “Solid dispersion formulations and methods of use thereof” (Zalicus Pharmaceuticals Ltd., priority 2011, dated 2013).

As a reminder, the half-life is the time in which the quantity being followed falls by half. As usually defined, the logP is a log measure of how a compound divides between an organic and an aqueous phase.

Molecules are shown by their SMILES. Several values for one entry are separate records, joined by “and”; a condition that tells them apart may be missing. Identical values can stand only once. Like-named read-outs stand apart in the source and are kept apart here.

For the molecule `O=C(CC(c1ccccc1)c1ccccc1)N1CCN(C(c2ccccc2)c2ccccc2)CC1` [Compound 1, 1-(4-benzhydrylpiperazin-1-yl)-3,3-diphenylpropan-1-one], the “Half-Life Period 1” value in data set [1] (period 1, individual subjects) was 617 h and 79 h and 75 h and 270 h and 73 h and 115 h and 112 h and 92 h and 94 h and 163 h and 96 h and 114 h and 72 h and 105 h and 77 h. Also, the “Half-Life Period 2” value in data set [1] (period 2, individual subjects) was 104 h and 171 h and 176 h and 417 h and 82 h and 106 h and 149 h and 155 h and 137 h and 400 h and 193 h and 98 h and 71 h and 116 h and 114 h. Further, the “Half-Life Ratio” value in data set [1] (ratio period 1 to period 2, Mean) was 73%; in data set [1] (ratio period 1 to period 2, individual subjects), 76% and 44% and 43% and 65% and 89% and 108% and 75% and 59% and 69% and 41% and 50% and 116% and 101% and 91% and 68%. The half-life in data set [1] (period 1, Mean, read-out: Half-Life Period 1 (converted)) is 139 h; in data set [1] (period 2, Mean, read-out: Half-Life Period 2 (converted)), 166 h. The same molecule came in with a logP in data set [2] of 2.6. Further, the “behaviour in FaSSIF media following exposure to gastric media” value in data set [3] is “rapidly precipitated”.
